pIC50: −log10 of the molar value.
Legend:
[1] = target: SOS1 (Homo sapiens (Human), UniProt Q07889); experiment: Ras-SOS interaction assay (HTRF), K-Ras G13D utilized; format: binding; conditions: K-Ras G13D, read-out: SOS1 IC50
[2] = system: NCI-H1975 (ATCC CRL-5908) cell line comprising an EGFR T790M L858R double mutation; experiment: EGFR-SOS cellular inhibition assay (CellTiter-Glo cell proliferation); format: cell-based; conditions: Homo sapiens, 120 h; NCI-H1975 cell proliferation, approximately 5 days; read-out: H1975 IC50
Description: A CellTiter-Glo (CTG) luminescent based assay (Promega) is used to assess growth of the cells, as a measurement of the ability of the compounds herein to inhibit EGFR signaling in the cells. […] The day after plating, cells are treated with a dilution series (e.g., a 9 point 3-fold dilution series) of the compounds herein (e.g., approximately 125 μL final volume per well).

Sequence of SOS1 (Q07889 564-1049): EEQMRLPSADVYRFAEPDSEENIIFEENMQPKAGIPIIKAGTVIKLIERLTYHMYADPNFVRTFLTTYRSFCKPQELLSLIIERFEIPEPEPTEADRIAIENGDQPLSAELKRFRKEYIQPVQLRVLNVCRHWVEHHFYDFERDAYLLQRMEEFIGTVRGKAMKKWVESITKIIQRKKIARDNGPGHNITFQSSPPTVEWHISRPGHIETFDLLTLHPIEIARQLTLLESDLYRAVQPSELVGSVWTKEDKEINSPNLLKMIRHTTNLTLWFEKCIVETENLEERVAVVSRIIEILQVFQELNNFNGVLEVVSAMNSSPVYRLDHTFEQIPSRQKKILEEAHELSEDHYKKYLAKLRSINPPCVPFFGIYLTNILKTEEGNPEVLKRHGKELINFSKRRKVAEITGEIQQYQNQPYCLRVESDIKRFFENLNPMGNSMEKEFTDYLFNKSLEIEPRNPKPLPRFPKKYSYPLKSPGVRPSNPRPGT

Structure (SMILES) | pIC50 [1] | pIC50 [2]
C[C@H]1Nc2ncnc3c2cc(C2CCS(=O)(=O)CC2)c(=O)n3CCCCNC(=O)[C@H](C)N2CCC(CC2)C(F)(F)c2cccc1c2 [Compound 85, (4R,13S)-6^6-(1,1-dioxidotetrahydro-2H-thiopyran-4-yl)-2,2-difluoro-4,13-dimethyl-6^7,6^8-dihydro-5,11-diaza-6(4,8)-pyrido[2,3-d]pyrimidina-1(4,1)-piperidina-3(1,3)-benzenacyclotridecaphane-6^7,12-dione] | > 7.00 | > 6.00
C[C@H]1Nc2ncnc3c2cc(C2CCS(=O)(=O)CC2)c(=O)n3CCCCC[C@H](O)CN2CCC(CC2)C(F)(F)c2cccc1c2 [Compound 86, (4R,12S)-6^6-(1,1-dioxidotetrahydro-2H-thiopyran-4-yl)-2,2-difluoro-12-hydroxy-4-methyl-6^7,6^8-dihydro-5-aza-6(4,8)-pyrido[2,3-d]pyrimidina-1(4,1)-piperidina-3(1,3)-benzenacyclotridecaphan-6^7-one] | > 7.00 | > 6.00
C[C@H]1Nc2nnc(c3c2cc(C2CCS(=O)(=O)CC2)c(=O)n3C)OCCCCN2CCC(CC2)C(F)(F)c2cccc1c2F [Compound 87, (R)-6^3-(1,1-dioxidotetrahydro-2H-thiopyran-4-yl)-3^2,2,2-trifluoro-6^1,4-dimethyl-6^1,6^2-dihydro-7-oxa-5-aza-6(5,8)-pyrido[2,3-d]pyridazina-1(4,1)-piperidina-3(1,3)-benzenacycloundecaphan-6^2-one] | 5.30 to 7.00 | > 6.00
C[C@H]1Nc2ncnc3c2cc(C2CCS(=O)(=O)CC2)c(=O)n3CCCCCCN2CC(CCC(F)(F)c3cccc1c3F)C2 [Compound 90, (3R)-1^6-(1,1-dioxidotetrahydro-2H-thiopyran-4-yl)-4^2,5,5-trifluoro-3-methyl-1^7,1^8-dihydro-2-aza-1(4,8)-pyrido[2,3-d]pyrimidina-8(3,1)-azetidina-4(1,3)-benzenacyclotetradecaphan-1^7-one] | > 7.00 | > 6.00
C[C@H]1Nc2ncnc3c2cc(C2CCS(=O)(=O)CC2)c(=O)n3CCCNC(=O)CCN2CCC(CC2)C(F)(F)c2cccc1c2 [Compound 91, (4R)-6^6-(1,1-dioxidotetrahydro-2H-thiopyran-4-yl)-2,2-difluoro-4-methyl-6^7,6^8-dihydro-5,10-diaza-6(4,8)-pyrido[2,3-d]pyrimidina-1(4,1)-piperidina-3(1,3)-benzenacyclotridecaphane-6^7,11-dione] | > 7.00 | > 6.00
C[C@H]1Nc2ncnc3c2cc(C2CCS(=O)(=O)CC2)c(=O)n3CC/C=C\CC(C)(C)CN2CCC(CC2)C(F)(F)c2cccc1c2 [Compound 92, (4R,Z)-6^6-(1,1-dioxidotetrahydro-2H-thiopyran-4-yl)-2,2-difluoro-4,12,12-trimethyl-6^7,6^8-dihydro-5-aza-6(4,8)-pyrido[2,3-d]pyrimidina-1(4,1)-piperidina-3(1,3)-benzenacyclotridecaphan-9-en-6^7-one] | > 7.00 | > 6.00
C[C@@H]1C(=O)NCCCCn2c(=O)c(C3CCS(=O)(=O)CC3)cc3c(ncnc32)N[C@H](C)c2cccc(c2)C(F)(F)C2CCN1CC2 [Compound 106, (4R,13R)-6^6-(1,1-dioxidotetrahydro-2H-thiopyran-4-yl)-2,2-difluoro-4,13-dimethyl-6^7,6^8-dihydro-5,11-diaza-6(4,8)-pyrido[2,3-d]pyrimidina-1(4,1)-piperidina-3(1,3)-benzenacyclotridecaphane-6^7,12-dione] | > 7.00 | > 6.00
CC1C/C=C\CCn2c(=O)c(C3CCS(=O)(=O)CC3)cc3c(ncnc32)N[C@H](C)c2cccc(c2F)C(F)(F)C2CCN(CC2)C1 (stereo partly drawn) [Compound 107, (4R,Z)-6^6-(1,1-dioxidotetrahydro-2H-thiopyran-4-yl)-3^2,2,2-trifluoro-4,12-dimethyl-6^7,6^8-dihydro-5-aza-6(4,8)-pyrido[2,3-d]pyrimidina-1(4,1)-piperidina-3(1,3)-benzenacyclotridecaphan-9-en-6^7-one] | > 7.00 | > 6.00
C[C@H]1Nc2ncnc3c2cc(C2CCS(=O)(=O)CC2)c(=O)n3CCCCn2cc(nn2)CN2CCC(CC2)C(F)(F)c2cccc1c2F [Compound 108, (6R,Z)-8^6-(1,1-dioxidotetrahydro-2H-thiopyran-4-yl)-5^2,4,4-trifluoro-6-methyl-8^7,8^8-dihydro-11H-7-aza-8(4,8)-pyrido[2,3-d]pyrimidina-3(1,4)-piperidina-1(4,1)-triazola-5(1,3)-benzenacyclododecaphan-8^7-one] | > 7.00 | > 6.00
C[C@H]1Nc2ncnc3c2cc(C2CCS(=O)(=O)CC2)c(=O)n3CCCCCC(C)(O)CN2CCC(CC2)C(F)(F)c2cccc1c2 (stereo partly drawn) [Compound 110, (4R)-6^6-(1,1-dioxidotetrahydro-2H-thiopyran-4-yl)-2,2-difluoro-12-hydroxy-4,12-dimethyl-6^7,6^8-dihydro-5-aza-6(4,8)-pyrido[2,3-d]pyrimidina-1(4,1)-piperidina-3(1,3)-benzenacyclotridecaphan-6^7-one] | > 7.00 | > 6.00
C[C@H]1Nc2ncnc3c2cc(C2CCS(=O)(=O)CC2)c(=O)n3CCCCCCCN2C3CCC2CC(C3)C(F)(F)c2cccc1c2F [Compound 113, (11S,15R,4R)-6^6-(1,1-dioxidotetrahydro-2H-thiopyran-4-yl)-32,2,2-trifluoro-4-methyl-6^7,6^8-dihydro-1^8,5-diaza-6(4,8)-pyrido[2,3-d]pyrimidina-1(3,8)-bicyclo[3.2.1]octana-3(1,3)-benzenacyclotridecaphan-6^7-one] | > 7.00 | > 6.00

Continued, values first:

pIC50 [1] | pIC50 [2] | Structure (SMILES)
5.30 to 7.00 | < 5.00 | Cc1nc2c3cc(C4(C#N)CC4)c(=O)n(c3n1)CCCCCOCC(F)(F)c1cccc(c1F)[C@@H](C)N2 [Compound 88, 1-((3R)-4^2,5,5-trifluoro-1^2,3-dimethyl-1^7-oxo-1^7,1^8-dihydro-7-oxa-2-aza-1(4,8)-pyrido[2,3-d]pyrimidina-4(1,3)-benzenacyclododecaphane-1^6-yl)cyclopropane-1-carbonitrile]
> 7.00 | > 6.00 | C[C@H]1Nc2ncnc3c2cc(C2(C#N)CC2)c(=O)n3CCC/C=C/CN2CCC(CC2)CC(F)(F)c2cccc1c2F [Compound 89, 1-((3R,E)-4^2,5,5-trifluoro-3-methyl-1^7-oxo-1^7,1^8-dihydro-2-aza-1(4,8)-pyrido[2,3-d]pyrimidina-7(4,1)-piperidina-4(1,3)-benzenacyclotridecaphan-9-en-1^6-yl)cyclopropane-1-carbonitrile]
> 7.00 | > 6.00 | C[C@H]1Nc2ncnc3c2cc(C2(C#N)CC2)c(=O)n3CCCCn2cc(nn2)CN2CCC(CC2)C(F)(F)c2cccc1c2 [Compound 94, 1-((6R,Z)-4,4-difluoro-6-methyl-8^7-oxo-8^7,8^8-dihydro-1^1H-7-aza-8(4,8)-pyrido[2,3-d]pyrimidina-3(1,4)-piperidina-1(4,1)-triazola-5(1,3)-benzenacyclododecaphane-8^6-yl)cyclopropane-1-carbonitrile]
> 7.00 | > 6.00 | C[C@H]1Nc2ncnc3c2cc(C2(C#N)CC2)c(=O)n3CCCn2cc(nn2)CN2CCC(CC2)C(F)(F)c2cccc1c2 [Compound 95, 1-((6R,Z)-4,4-difluoro-6-methyl-8^7-oxo-8^7,8^8-dihydro-11H-7-aza-8(4,8)-pyrido[2,3-d]pyrimidina-3(1,4)-piperidina-1(4,1)-triazola-5(1,3)-benzenacycloundecaphane-8^6-yl)cyclopropane-1-carbonitrile]
> 7.00 | > 6.00 | CC1C/C=C\CCCN2CCC(CC2)C(F)(F)c2cccc(c2F)[C@@H](C)Nc2ncnc3c2cc(C2(C#N)CC2)c(=O)n31 (stereo partly drawn) [Compound 97, 1-((4R,Z)-3^2,2,2-trifluoro-4,7-dimethyl-6^7-oxo-6^7,6^8-dihydro-5-aza-6(4,8)-pyrido[2,3-d]pyrimidina-1(4,1)-piperidina-3(1,3)-benzenacyclotridecaphan-9-en-6^6-yl)cyclopropane-1-carbonitrile]
> 7.00 | > 6.00 | C[C@H]1Nc2ncnc3c2cc(C2(C#N)CC2)c(=O)n3CC(=O)NCCC[C@H](C)N2CCC(CC2)C(F)(F)c2cccc1c2F [Compound 98, 1-((4R,13S)-3^2,2,2-trifluoro-4,13-dimethyl-6^7,8-dioxo-6^7,6^8-dihydro-5,9-diaza-6(4,8)-pyrido[2,3-d]pyrimidina-1(4,1)-piperidina-3(1,3)-benzenacyclotridecaphane-6^6-yl)cyclopropane-1-carbonitrile]
> 7.00 | > 6.00 | C[C@H]1Nc2ncnc3c2cc(C2(C#N)CC2)c(=O)n3CCCCCCN2CCC(CC2)C(F)(F)c2cccc1c2 [Compound 104, 1-((4R)-2,2-difluoro-4-methyl-6^7-oxo-6^7,6^8-dihydro-5-aza-6(4,8)-pyrido[2,3-d]pyrimidina-1(4,1)-piperidina-3(1,3)-benzenacyclododecaphane-6^6-yl)cyclopropane-1-carbonitrile]
> 7.00 | > 6.00 | Cc1nc2c3cc(C4(C#N)CC4)c(=O)n(c3n1)CCCC/C=C\COCC(F)(F)c1cccc(c1F)[C@@H](C)N2 [Compound 105, 1-((3R,Z)-4^2,5,5-trifluoro-1^2,3-dimethyl-1^7-oxo-1^7,1^8-dihydro-7-oxa-2-aza-1(4,8)-pyrido[2,3-d]pyrimidina-4(1,3)-benzenacyclotetradecaphan-9-en-1^6-yl)cyclopropane-1-carbonitrile]
> 7.00 | > 6.00 | Cc1nc2c3cc(C4(C#N)CC4)c(=O)n(c3n1)CCCCC/C=C\COCC(F)(F)c1cccc(c1F)[C@@H](C)N2 [Compound 109, 1-((3R,Z)-4^2,5,5-trifluoro-1^2,3-dimethyl-1^7-oxo-1^7,1^8-dihydro-7-oxa-2-aza-1(4,8)-pyrido[2,3-d]pyrimidina-4(1,3)-benzenacyclopentadecaphan-9-en-1^6-yl)cyclopropane-1-carbonitrile]
